Laboratory results published in patent US8980879B2 (AbbVie Inc., priority 2013, dated 2015).

Legend:
BRD4 (BDI_K57-E168) = biological target: T1, BRD4 (BDI_K57-E168) (Homo sapiens, UniProt O60885); assay: TR-FRET bromodomain binding assay, BRD4 first bromodomain; settings: His-tagged BD1, 100 nM Alexa647 probe; assay protocol D or F as given per row in c1; Ki calculated from IC50
T1 construct: BD1: amino acids K57-E168; made in house
Description: (§1) A time-resolved fluorescence resonance energy transfer (TR-FRET) assay was used to determine the affinities of compounds of the Examples listed in Table 1 for each bromodomain of BRD4. His-tagged first (BD1: amino acids K57-E168) and second (BD2: amino acids E352-E168) bromodomains of BRD4 were expressed and purified. An Alexa647-labeled BET-inhibitor was used as the fluorescent probe in the assay.
(§2) Compound dilution series were prepared in DMSO via an approximately 3-fold serial dilution from one of the following:
(§3) Assay method D: 500 μM-8.5 nM
(§4) Assay method E: 0.47 mM to 7.8 nM
(§5) Assay method F: 250 μM-4.2 nM
(§6) Assay method G: 0.047 mM to 0.78 nM
(§7) or 5-fold serial dilution from one of the following:
(§8) Assay method A: 2.5 mM-800 nM
(§9) Assay method B: 2.5 mM-797 nM
(§10) For Assay methods A, C, D, and F: Compounds were then diluted 6:100 in assay buffer (20 mM Sodium Phosphate, pH 6.0, 50 mM NaCl, 1 mM Ethylenediaminetetraacetic acid, 0.01% Triton X-100, 1 mM DL-Dithiothreitol) to yield 3× working solutions. Six microliters (μL) of the working solution was then transferred to white, low-volume assay plates (Costar #3673). A 1.5× assay mixture containing His-tagged bromodomain, Europium-conjugated anti-His antibody (Invitrogen PV5596) and the Alexa-647-conjugated probe molecule was also prepared. Twelve μL of this solution were added to the assay plate to reach a final volume of 18 μL.
(§11) For Assay methods B, E, and G: Compound dilutions were added directly into white, low-volume assay plates (Perkin Elmer Proxiplate 384 Plus#6008280) using a Labcyte Echo in conjunction with Labcyte Access and Thermo Multidrop CombinL robotics. Compounds were then suspended in eight microliters (μL) of assay buffer (20 mM Sodium Phosphate, pH 6.0, 50 mM NaCl, 1 mM Ethylenediaminetetraacetic acid disodium salt dihydrate, 0.01% Triton X-100, 1 mM DL-Dithiothreitol) containing His-tagged bromodomain, Europium-conjugated anti-His antibody (Invitrogen PV5596) and Alexa-647-conjugated probe.
(§12) The final concentration of 1× assay mixture for assay methods A, B, C, D, E, F, and G contains 2% DMSO, 8 nM His-tagged bromodomain, 1 nM Europium-conjugated anti-His-tag antibody and 100 nM or 30 nM probe (for BDI or BDII, respectively) and compound concentration in the range of: 50 μM-16 nM for method A, 49.02 μM-15.63 nM for method B, 25 μM-423 pM for method C, 10 μM-169 pM for method D, 9.19 μM 150 pM for method E, 5 μM-85 pM for method F, and 0.92 μM-15 pM for method G.
(§13) After a one-hour equilibration at room temperature, TR-FRET ratios were determined using an Envision multilabel plate reader (Ex 340, Em 495/520).
(§14) TR-FRET data were normalized to the means of 24 no-compound controls (“high”) and 8 controls containing 1 μM un-labeled probe (“low”). Percent inhibition was plotted as a function of compound concentration and the data were fit with the 4 parameter logistic equation to obtain IC50s Inhibition constants (Ki) were calculated from the IC50s, probe Kd and probe concentration. Typical Z′ values were between 0.65 and 0.75. The minimum significant ratio was determined to evaluate assay reproducibility (Eastwood et al., (2006) J Biomol Screen, 11: 253-261). The MSR was determined to be 2.03 for BDI and 1.93 for BDII, and a moving MSR (last six run MSR overtime) for both BDI and BDII was typically <3.

[1] = tested on: breast cancer cell line MX-1; assay: MX-1 cell line proliferation assay; type: cell-based; settings: Homo sapiens, MX1; MX-1 cells, 3-day (72 h) proliferation, Cell Titer Glo; read-out: Cellular proliferation: EC50
Description: MX-1 Cell Line Proliferation Assay
The impact of compounds of the Examples on cancer cell proliferation was determined using the breast cancer cell line MX-1 (ATCC) in a 3-day proliferation assay and the data are reported in Table 1. MX-1 cells were maintained in RPMI 1640 medium (Sigma) supplemented with 10% FBS at 37 C.° and an atmosphere of 5% CO2. For compound testing, MX-1 cells were plated in 96-well black bottom plates at a density of 5000 cells/well in 90 μL of culture media and incubated at 37° overnight to allow cell adhesion and spreading. Compound dilution series were prepared in DMSO via a 3-fold serial dilution from 3 mM to 0.1 μM. The DMSO dilution series were then diluted 1:100 in phosphate buffered saline, and 10 μL of the resulted solution were added to the appropriate wells of the MX-1 cell plate. The final compound concentrations in the wells were 3, 1, 0.3, 0.1, 0.03, 0.01, 0.003, 0.001, 0.0003 and 0.0001 μM.
Luminescence readings from the Cell Titer Glo assay were normalized to the DMSO treated cells and analyzed using the GraphPad Prism software with sigmoidal curve fitting to obtain EC50s. The minimum significant ratio (MSR) was determined to evaluate assay reproducibility (Eastwood et al., (2006) J Biomol Screen, 11: 253-261). The overall MSR was determined to be 2.1 and a moving MSR (last six run MSR overtime) has been <2.

BRD4 (BDII_E352-M457) = biological target: T2, BRD4 (BDII_E352-M457) (Homo sapiens, UniProt O60885); assay: TR-FRET bromodomain binding assay, BRD4 second bromodomain
T2 construct: protocol; made in house
Description: as §1, §2, §3, §4, §5, §6, §7, §8, §9, §10, §11, §12, §13, §14

Row | Structure (SMILES) | Ki (BRD4 (BDI_K57-E168)) [nM] | EC50 [1] [nM] | Ki (BRD4 (BDII_E352-M457)) [nM]
1 | Cn1cc2c3c(c[nH]c(=O)c31)CNc1ccc(S(C)(=O)=O)cc1-2 [Example 1] | 1350 | > 3000 | 2820
2 | Cn1cc2c3c(c[nH]c(=O)c31)CN(CC1CC1)c1ccc(S(C)(=O)=O)cc1-2 [Example 2] | 21 | 144 | 430
3 | Cn1cc2c3c(c[nH]c(=O)c31)CN(C(=O)C1CC1)c1ccc(CS(C)(=O)=O)cc1-2 [Example 6] | 3.53 | 16.4 | 2.44
4 | Cn1cc2c3c(c[nH]c(=O)c31)CN(C(=O)c1ccccc1)c1ccc(CS(C)(=O)=O)cc1-2 [Example 7] | 59.1 | 273 | 97.5
5 | COCCC1c2c[nH]c(=O)c3c2c(cn3C)-c2cc(CS(C)(=O)=O)ccc2N1c1ccc(F)cc1 (stereo not drawn) [Example 8] | 5.81 | 46.6 | 25.2
6 | COC(=O)CCC1c2c[nH]c(=O)c3c2c(cn3C)-c2cc(CS(C)(=O)=O)ccc2N1c1ccc(F)cc1 (stereo not drawn) [Example 9] | 6.29 | 805 | 18.2
7 | Cn1cc2c3c(c[nH]c(=O)c31)C(CC1CCOCC1)N(c1ccc(F)cc1)c1ccc(CS(C)(=O)=O)cc1-2 (stereo not drawn) [Example 10] | 8.23 | 81.6 | 57.4
8 | Cn1cc2c3c(c[nH]c(=O)c31)CN(CC1CC1)c1ccccc1-2 [Example 11] | 7.14 | 56.8 | 18.9
9 | Cn1cc2c3c(c[nH]c(=O)c31)C(c1ccccc1)N(c1ccc(F)cc1)c1ccc(Cl)cc1-2 (stereo not drawn) [Example 24] | 178 | – | > 408
10 | Cn1cc2c3c(c[nH]c(=O)c31)CN(c1ccc(F)cc1)c1ccc(NC(=O)Cc3ccc(Cl)cc3F)cc1-2 [Example 29] | 3.03 | – | 22.4
11 | Cn1cc2c3c(c[nH]c(=O)c31)CN(c1ccc(F)cc1)c1ccc(NC(=O)Cn3ccc(-c4ccccc4F)n3)cc1-2 [Example 31] | 11.5 | – | 79.5
12 | COc1cccc(NC(=O)Nc2ccc3c(c2)-c2cn(C)c4c(=O)[nH]cc(c24)CN3c2ccc(F)cc2)c1 [Example 45] | 7.12 | – | 130
13 | Cn1cc2c3c(c[nH]c(=O)c31)CN(c1ccc(F)cc1)c1ccc(NC(=O)Cc3ccc4c(c3)CCCO4)cc1-2 [Example 46] | 3.29 | – | 19.7
14 | Cn1cc2c3c(c[nH]c(=O)c31)CN(c1ccc(F)cc1)c1ccc(NC(=O)Cc3cc(F)ccc3C(F)(F)F)cc1-2 [Example 51] | 5.12 | – | 84.8
15 | Cc1ccc(C)c(CC(=O)Nc2ccc3c(c2)-c2cn(C)c4c(=O)[nH]cc(c24)CN3c2ccc(F)cc2)c1 [Example 53] | 2.61 | – | 50.1
16 | Cn1cc2c3c(c[nH]c(=O)c31)CN(c1ccc(F)cc1)c1ccc(NC(=O)Cc3ccccc3)cc1-2 [Example 54] | 2.07 | – | 17.9
17 | Cn1cc2c3c(c[nH]c(=O)c31)CN(c1ccc(F)cc1)c1ccc(NC(=O)Cc3cc(Cl)ccc3Oc3ccccc3)cc1-2 [Example 55] | 9.31 | – | 240
18 | COc1ccc(F)cc1CNC(=O)c1ccc2c(c1)-c1cn(C)c3c(=O)[nH]cc(c13)CN2c1ccc(F)cc1 [Example 56] | 1.74 | – | 57.4
19 | CC(NC(=O)c1ccc2c(c1)-c1cn(C)c3c(=O)[nH]cc(c13)CN2c1ccc(F)cc1)c1ccc(F)cc1 (stereo not drawn) [Example 59] | 2.89 | – | 71.5
20 | CC(NC(=O)c1ccc2c(c1)-c1cn(C)c3c(=O)[nH]cc(c13)CN2c1ccc(F)cc1)c1ccc(Cl)cc1Cl (stereo not drawn) [Example 61] | 5.17 | – | 147
21 | Cn1cc2c3c(c[nH]c(=O)c31)CN(c1ccc(F)cc1)c1ccc(C(=O)NCc3cc(F)ccc3F)cc1-2 [Example 64] | 1.73 | – | 46.9
22 | Cn1cc2c3c(c[nH]c(=O)c31)CN(c1ccc(F)cc1F)c1ncc(N)cc1-2 [Example 67] | 21.2 | – | 7
23 | CC(=O)N1CCC(N2Cc3c[nH]c(=O)c4c3c(cn4C)-c3cc(N)ccc32)CC1 [Example 73] | 7.08 | – | 41.8
